# Where two headings read alike, the source gives them in different places.
# Legend:
# [1] = target: CYP2C9 (Homo sapiens, UniProt P11712); settings: cited from earlier work
# [2] = in vivo; settings: Sprague-Dawley, rat, po, 1.5 mg/kg; for Cmax: Cmax of fluvastatin
# Protocol: (§1) The test system used is the Sprague-Dawley rat.
# (§2) After overnight fast, rats are anesthetized and prepared with a jugular catheter. […] Twelve blood samples (including pre dose blank) are collected over 24 hours—0, 10, 20, 40, 60, 120, 240, 360, 480, 720, 1080 and 1440 minutes. Each sample (0.5 to 0.6 mL blood) is collected into microfuge tubes containing 20 uL of 10 IU heparin (anti-coagulant). After separation, plasma samples are protected from light and stored at −80° C. freezer.
# [3] = rats; cited from earlier work
# [4] = tested on: CYP2C9; settings: for % inhibition of CYP2C9 activity: tolbutamide 1 mM, rat liver microsomes; for 4′-hydroxytolbutamide: Sprague-Dawley, rat, 7.5 min, pH 7.4
# [5] = In vivo study in rodents: fluvastatin pharmacokinetics with or without tamarixetin; settings: tamarixetin pretreatment versus control, rats
# Protocol: as §1, §2
# [6] = tested on: CYP2C9; assay: in vitro; settings: Sprague-Dawley, rat, microsomes
# [7] = pH 7.4, % inhibition of CYP2C9 activity
# [8] = pH 7.4, % inhibition of tolbutamide metabolism in microsomes
# Sequence of CYP2C9 (Homo sapiens, UniProt P11712) (P11712 whole entry): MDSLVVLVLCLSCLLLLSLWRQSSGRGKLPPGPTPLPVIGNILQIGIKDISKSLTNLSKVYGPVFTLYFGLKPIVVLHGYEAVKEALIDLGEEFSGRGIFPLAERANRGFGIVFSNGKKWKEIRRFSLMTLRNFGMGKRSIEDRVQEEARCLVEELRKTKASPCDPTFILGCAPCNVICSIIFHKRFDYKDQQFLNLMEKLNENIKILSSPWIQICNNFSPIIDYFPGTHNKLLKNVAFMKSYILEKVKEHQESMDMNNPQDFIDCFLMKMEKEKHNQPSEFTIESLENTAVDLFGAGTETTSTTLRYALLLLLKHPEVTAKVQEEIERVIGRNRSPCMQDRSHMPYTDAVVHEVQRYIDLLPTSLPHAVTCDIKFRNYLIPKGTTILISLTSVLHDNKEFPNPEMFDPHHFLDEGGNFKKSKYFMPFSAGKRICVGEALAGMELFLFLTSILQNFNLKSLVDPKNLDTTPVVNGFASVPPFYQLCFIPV
smiles,measurement,setting,value
CC(C)n1c(/C=C/C(O)CC(O)CC(=O)O)c(-c2ccc(F)cc2)c2ccccc21 (stereo not drawn) [fluvastatin],share of metabolism for which liver CYP2C9 is responsible,[1],approximately 80%
same,AUC(0-inf),[2],950 ± 133 ng·h/mL
same,AUC(0-t),[2],711 ± 81.5 ng·h/mL
same,MRT inf,[2],15.8 ± 1.56 h
same,Tmax,[2],4.7 ± 1.7 h
same,Cmax,[2],63.1 ± 10.4 ng/mL
same,Cmax,[2]; control group,63.1 ± 10.4 ng/mL
CCCCNC(=O)NS(=O)(=O)c1ccc(C)cc1 [tolbutamide],oral bioavailability,[3],90%
"C=C(C)C1CC=C(C)CC1 (single isomer, unassigned; (+)) [(+)-Limonene]",% inhibition of CYP2C9 activity,[4]; test article 1 μM,14.12%
same,% inhibition of CYP2C9 activity,[4]; test article 10 μM,10.55%
same,% inhibition of CYP2C9 activity,[4]; test article 100 μM,22.29%
COc1ccc(-c2oc3cc(O)cc(O)c3c(=O)c2O)cc1O [Tamarixetin],change of terminal elimination rate constant (k) of fluvastatin,[5],no apparent changes
same,4′-hydroxytolbutamide,[4]; 1 μM,213.5696 ± 24.4309 ng
same,4′-hydroxytolbutamide,[4]; 10 μM,43.1 ± 2.5372 ng
same,4′-hydroxytolbutamide,[4]; 100 μM,35.49 ± 1.5825 ng
same,"inhibition at 7.5 min, 1 μM","[6]; pH 7.4, % inhibition",42%
same,"inhibition at 7.5 min, 10 μM","[6]; pH 7.4, % inhibition",88.2%
same,"inhibition at 7.5 min, 100 μM","[6]; pH 7.4, % inhibition",90.2%
same,"inhibition at 7.5 min, 1 μM",[6]; [7],42%
same,"inhibition at 7.5 min, 10 μM",[6]; [7],88.1%
same,"inhibition at 7.5 min, 100 μM",[6]; [7],90.2%
same,"inhibition at 7.5 min, 1 μM",[6]; [8],42%
same,"inhibition at 7.5 min, 10 μM",[6]; [8],88.1%
same,"inhibition at 7.5 min, 100 μM",[6]; [8],90.2%
O=C1C[C@@H](c2ccc(O)cc2)Oc2cc(O)cc(O)c21 [Narigenin],% inhibition of CYP2C9 activity,[4]; test article 1 μM,5.20%
same,% inhibition of CYP2C9 activity,[4]; test article 10 μM,49.98%
same,% inhibition of CYP2C9 activity,[4]; test article 100 μM,79.70%
